These are literature values, as cited in patent US20190000795A1, “Methods of using cannabinoids and/or molecular similars for modulating, waking-up and/or disabling cellular functions involved in causing disease -- reinvigorating metabolism with anandamide, 2-arachidonoylglycerol and similarly acting compounds” (priority 2017, published 2019).

The target in one data set is GPR55 (Homo sapiens, UniProt Q9Y2T6).
Data set [1] relates to mitochondrion.
In data set [2] the test system is mitochondrion. The source holds these as a separate data set.
The test system of the next data set is Complex 1. The note with it: for Complex 1 activity, rapid and transient increase: below threshold around 10 μM.

Read-outs that look alike come from different tables or passages of the source.

GPR55, sequence (Q9Y2T6 whole entry, species assumed): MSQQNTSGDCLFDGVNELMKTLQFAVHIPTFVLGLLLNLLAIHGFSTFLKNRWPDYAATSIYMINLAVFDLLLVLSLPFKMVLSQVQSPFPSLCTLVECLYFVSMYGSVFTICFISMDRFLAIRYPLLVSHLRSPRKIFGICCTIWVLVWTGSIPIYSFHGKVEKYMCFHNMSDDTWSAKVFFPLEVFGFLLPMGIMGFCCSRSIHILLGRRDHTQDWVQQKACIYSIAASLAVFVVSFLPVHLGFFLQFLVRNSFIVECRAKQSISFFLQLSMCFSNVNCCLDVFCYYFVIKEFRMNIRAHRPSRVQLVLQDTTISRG

`CCCCC/C=C\C/C=C\C/C=C\C/C=C\CCCC(=O)OC(CO)CO` [2AG, 2-arachidonoylglycerol]: the “GPR55 Ca2+ flux activation” value on GPR55 is given as “not”.

As to `CCCCC/C=C\C/C=C\C/C=C\C/C=C\CCCC(=O)NCCO` [AEA, N-arachidonoylethanolamine], the “O2 consumption at the mitochondrion” value in the data set on mitochondrion [1] is on record as “decrease”. Further, the “GPR55 Ca2+ flux activation” value at GPR55 is “Ca^2+ flux activation”. For the same molecule, in the data set on mitochondrion [2], the “effect on H2O2 production” value was “no effect”. In addition, in the data set on Complex 1, the “concentration range of steady logarithmic decline of Complex 1 activity” value was 5-200 μM.

Take `CCCCCCC(C)(C)c1ccc([C@@H]2C[C@H](O)CC[C@H]2CCCO)c(O)c1` [CP 55 940]: the “GPR55 Ca2+ flux activation” value on GPR55 is reported as “not”.

With `CCCCCCC(C)(C)c1cc(O)c2c(c1)OC(C)(C)[C@@H]1CC=C(CO)C[C@@H]21` [HU210], the “O2 consumption at the mitochondrion” value in the data set with mitochondrion [1] is “decrease”. The “effect on H2O2 production” value in the data set on mitochondrion [2] (between 2 and 10 μM) is “increase”. Further, in the data set with Complex 1, the “threshold concentration of sudden decrease of Complex 1 activity” value was “around 10 μM”; the “Complex 1 activity, rapid and transient increase” value is 25%.

On to `CCCn1c(C)c(C(=O)c2cccc3ccccc23)c2ccccc21` [JWH015], for which the “GPR55 Ca2+ flux activation” value at GPR55 is listed as “Ca^2+ flux activation”.

Turning to `CCCCC/C=C\C/C=C\C/C=C\C/C=C\CCCC(=O)OCCN` [O-AEA, O-arachidonoyl ethanolamine], at GPR55, the “GPR55 Ca2+ flux activation” value was “not”. The body temperature entry with mice was “lowers body temperature”.

Consider `CCCCCCCCCCCCCCCC(=O)NCCO` [PEA, palmitoylethanolamide], for which, at GPR55, the “GPR55 Ca2+ flux activation” value is “not”.

With `CCCCCc1cc(O)c2c(c1)OC(C)(C)[C@@H]1CCC(C)=C[C@@H]21` [THC, delta-9 tetrahydrocannabinol], the “O2 consumption at the mitochondrion” value with mitochondrion [1] is recorded as “decrease”. For the same molecule, on GPR55, the “GPR55 Ca2+ flux activation” value is listed as “Ca^2+ flux activation”. Besides, the “effect on H2O2 production” value in the data set with mitochondrion [2] (between 2 and 10 μM) was “increase”. For the same molecule, in the data set on Complex 1, the “threshold concentration of sudden decrease of Complex 1 activity” value is “around 10 μM”; the “Complex 1 activity, rapid and transient increase” value was 50%. In addition, the “Complex 2/3 inhibition, course of effect” value with Complex 2/3 is “more steady logarithmic concentration dependent effect”.

For `CCCCC/C=C\C/C=C\C/C=C\C/C=C\CCCC(=O)N[C@H](C)CO` [methanandamide], the “GPR55 Ca2+ flux activation” value at GPR55 is “Ca^2+ flux activation”.
